Laboratory results published in patent US20230027929A1, “MrgprX2 Antagonists and Uses Thereof” (Dermira, Inc., priority 2019, published 2023).

Biological target: T1, hMrgpMRGPRX2 (Homo sapiens, UniProt Q96LB1)
T1 construct: expressed in transfected cells
T1 sequence (Q96LB1 1-330): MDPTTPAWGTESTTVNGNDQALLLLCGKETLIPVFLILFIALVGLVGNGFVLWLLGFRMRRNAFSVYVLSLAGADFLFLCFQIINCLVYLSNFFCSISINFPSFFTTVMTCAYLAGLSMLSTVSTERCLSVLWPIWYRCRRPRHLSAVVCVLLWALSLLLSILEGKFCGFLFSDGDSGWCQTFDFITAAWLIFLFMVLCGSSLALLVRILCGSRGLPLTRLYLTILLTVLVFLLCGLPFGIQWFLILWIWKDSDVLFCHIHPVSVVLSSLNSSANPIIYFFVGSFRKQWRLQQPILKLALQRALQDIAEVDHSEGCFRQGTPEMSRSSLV
Test: FLIPR intracellular calcium mobilization, antagonist activity in recombinant hMrgpMRGPRX2 expressing cells
Type: cell-based
Settings: read-out: Human MrgprX2 Antagonist pIC50 (converted)
How it was run: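 Antagonist activity was read as inhibition of intracellular calcium mobilization (FLIPR) in recombinant cells expressing human MrgprX2. Potency was also checked in LAD-2 human mast cells with endogenous receptor, and orthologue activity in cells expressing mouse MrgprB2, mouse MrgprA1, and gerbil, Chinese hamster and cynomolgus orthologues.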

| IC50 [nM] | SMILES |
| --- | --- |
| 42.7 | CN(C[C@@](C)(O)C(F)(F)F)C(=O)Nc1cc(Oc2cccc(F)c2)ccn1 [Compound E160] |
| 0.891 | CCN(C[C@@H](O)C(F)(F)F)C(=O)Nc1cc(Oc2cccc(F)c2)c(F)cn1 [Compound E161] |
| 19.1 | CCN(C[C@@H](O)C(F)(F)F)C(=O)Nc1cc(Oc2cncc(F)c2)ccn1 [Compound E162, 1-ethyl-3-[4-[(5-fluoro-3-pyridyl)oxy]-2-pyridyl]-1-[(2R)-3,3,3-trifluoro-2-hydroxy-propyl]urea] |
| 0.575 | CCN(C[C@@H](O)C(F)(F)F)C(=O)Nc1cc(Oc2cc(F)cc(F)c2)ccn1 [Compound E163, 3-[4-(3,5-difluorophenoxy)-2-pyridyl]-1-ethyl-1-[(2R)-3,3,3-trifluoro-2-hydroxy-propyl]urea] |
| 251 | CC(C)C(=O)Nc1ccc(-c2ccccc2)cn1 [Compound E164, 2-methyl-N-(5-phenyl-2-pyridyl)propanamide] |
| 1260 | CC(C)C(=O)Nc1ccc(-c2ccc(F)cc2)cn1 [Compound E165] |
| 63.1 | CC(C)C(=O)Nc1ccc(-c2cccc(F)c2)cn1 [Compound E166] |
| 316 | CC(C)C(=O)Nc1ccc(-c2ccccc2F)cn1 [Compound E167] |
| 7940 | CC(C)C(=O)Nc1cc(-c2ccccc2)ccn1 [Compound E168] |
| 2000 | COc1ccccc1-c1ccc(NC(=O)C(C)C)nc1 [Compound E169] |
| 200 | CC(C)C(=O)Nc1ccc(-c2cccc(C#N)c2)cn1 [Compound E170] |
| 316 | COc1cccc(-c2ccc(NC(=O)C(C)C)nc2)c1 [Compound E171] |
| 316 | COc1ccc(-c2ccc(NC(=O)C(C)C)nc2)cc1 [Compound E172] |
| 31.6 | CC(C)C(=O)Nc1ccc(-c2cc(F)cc(F)c2)cn1 [Compound E173] |
| 100 | CC(C)C(=O)Nc1ccc(-c2cc(F)cc(C#N)c2)cn1 [Compound E174] |
| 6310 | CC(C)C(=O)Nc1ccc(C2CCCC2)cn1 [Compound E177, N-(5-cyclopentyl-2-pyridyl)-2-methyl-propanamide] |
| 1260 | CC(C)(C#N)C(=O)Nc1ccc(-c2cc(F)cc(F)c2)cn1 [Compound E178, 2-cyano-N-[5-(3,5-difluorophenyl)-2-pyridyl]-2-methyl-propanamide] |

| IC50 [nM] | SMILES |
| --- | --- |
| 200 | O=C(Nc1ccc(-c2cc(F)cc(F)c2)cn1)C1CC1 [Compound E179] |
| 12.6 | CC1(C)CC1C(=O)Nc1ccc(-c2cc(F)cc(F)c2)cn1 (centres unmarked) [Compound E180] |
| 6310 | CC(C)C(=O)Nc1ccc(Cc2ccccc2)cn1 [Compound E181] |
| 25.1 | CC1(C)CC1C(=O)Nc1ccc(-c2cc(F)ccc2F)cn1 (centres unmarked) [Compound E182] |
| 19.5 | CC1(C)CC1C(=O)Nc1ccc(-c2cccc(F)c2F)cn1 (centres unmarked) [Compound E183] |
| 50.1 | CC1(C)CC1C(=O)Nc1ccc(-c2cc(F)cc(C#N)c2)cn1 (centres unmarked) [Compound E188] |
| 2510 | C[C@H](O)CN(C)C(=O)Nc1ccc(-c2cc(F)cc(F)c2)cn1 [Compound E191, 3-[5-(3,5-difluorophenyl)-2-pyridyl]-1-[(2S)-2-hydroxypropyl]-1-methyl-urea] |
| 1200 | CCN(C[C@@H](O)C(F)(F)F)C(=O)Nc1ccc(-c2cc(F)cc(C#N)c2)cn1 [Compound E192] |
| 6310 | CN(C)C(=O)Nc1ccc(-c2cc(F)cc(F)c2)cn1 [Compound E193] |
| 214 | CCN(C[C@@H](O)C(F)(F)F)C(=O)Nc1ccc(-c2cc(F)cc(F)c2)cn1 [Compound E194] |
| 5010 | CCN(C[C@H](C)O)C(=O)Nc1ccc(-c2ccccc2)cn1 [Compound E195] |
| 851 | CCN(C[C@@H](O)C(F)(F)F)C(=O)Nc1ccc(F)cn1 [Compound E196] |
| 3090 | CCN(C[C@@H](O)C(F)(F)F)C(=O)Nc1ccc(-c2ncco2)cn1 [Compound E197, 1-ethyl-3-(5-oxazol-2-yl-2-pyridyl)-1-[(2R)-3,3,3-trifluoro-2-hydroxy-propyl]urea] |
| 6310 | CC(C)C(=O)Nc1ccc(Br)cn1 [Compound E202] |
| 3160 | CC1(C)CC1C(=O)Nc1cc(Cl)ccn1 (centres unmarked) [Compound E208] |
| 2510 | C[C@H](C(=O)Nc1ccccn1)c1ccccc1 [Compound E209] |
| 2000 | C[C@@H](C(=O)Nc1ccccn1)c1ccccc1 [Compound E210] |

| SMILES | IC50 [nM] |
| --- | --- |
| CC1(C)C(C(=O)Nc2ccc(-c3cn[nH]c3)cn2)C1(C)C [Compound E175] | 2510 |
| CC1(C)C(C(=O)Nc2ccc(-c3ccn[nH]3)cn2)C1(C)C [Compound E176] | 120 |
| CC1(C)C(C(=O)Nc2ccc(-c3cncc(F)c3)cn2)C1(C)C [Compound E184] | 70.8 |
| Cn1cc(-c2ccc(NC(=O)C3C(C)(C)C3(C)C)nc2)cn1 [Compound E185] | 93.3 |
| CC1(C)C(C(=O)Nc2ccc(C3CCOC3)cn2)C1(C)C (centres unmarked) [Compound E186] | 186 |
| CC1(C)C(C(=O)Nc2ccc(C3=COCC3)cn2)C1(C)C [Compound E187] | 14.5 |
| Cn1ncc(-c2ccc(NC(=O)C3C(C)(C)C3(C)C)nc2)n1 [Compound E189, 2,2,3,3-tetramethyl-N-[5-(2-methyltriazol-4-yl)-2-pyridyl]cyclopropanecarboxamide] | 1170 |
| Cn1cc(-c2ccc(NC(=O)C3C(C)(C)C3(C)C)nc2)nn1 [Compound E190, 2,2,3,3-tetramethyl-N-[5-(1-methyltriazol-4-yl)-2-pyridyl]cyclopropanecarboxamide] | 631 |
| CC1(C)C(C(=O)Nc2ccc(-c3ncco3)cn2)C1(C)C [Compound E198, 2,2,3,3-tetramethyl-N-(5-oxazol-2-yl-2-pyridyl)cyclopropanecarboxamide] | 33.9 |
| CC1(C)C(C(=O)Nc2ccc(-n3cccn3)cn2)C1(C)C [Compound E199, 2,2,3,3-tetramethyl-N-(5-pyrazol-1-yl-2-pyridyl)cyclopropanecarboxamide] | 33.9 |
| CC1(C)C(C(=O)Nc2ccc(I)cn2)C1(C)C [Compound E200, N-(5-iodo-2-pyridyl)-2,2,3,3-tetramethyl-cyclopropanecarboxamide] | 14.8 |
| CN(C)c1ccc(NC(=O)C2C(C)(C)C2(C)C)nc1 [Compound E201, N-[5-(dimethylamino)-2-pyridyl]-2,2,3,3-tetramethyl-cyclopropanecarboxamide] | 162 |
| CC1(C)C(C(=O)Nc2cc(C(F)(F)F)ccn2)C1(C)C [Compound E203] | 1580 |
| CC1(C)C(C(=O)Nc2ccc(Cl)cn2)C1(C)C [Compound E204] | 1.58 |
| CC1(C)C(C(=O)Nc2ccc(C(F)(F)F)cn2)C1(C)C [Compound E205] | 501 |
| CC1(C)C(C(=O)Nc2ccc(C#N)cn2)C1(C)C [Compound E206] | 251 |
| CC1(C)C(C(=O)Nc2cc(C#N)ccn2)C1(C)C [Compound E207] | 3160 |
| CC1(C)C(C(=O)Nc2ccc(F)cn2)C1(C)C [Compound E211] | 1.26 |
| COc1ccc(NC(=O)C2C(C)(C)C2(C)C)nc1 [Compound E212] | 20 |
| Cc1cnc(NC(=O)C2C(C)(C)C2(C)C)cn1 [Compound E213] | 1580 |
| CC1(C)C(C(=O)Nc2cnc(Cl)cn2)C1(C)C [Compound E214] | 100 |
| COc1cnc(NC(=O)C2C(C)(C)C2(C)C)cn1 [Compound E215] | 200 |
